Some test systems named below: HCT-116 colon; TK-10 renal; KM12 colon; SK-MEL-2 melanoma; SK-OV-3 ovarian; SK-MEL-28 melanoma; SW-620 colon; SF-295 CNS; IGROV1 ovarian; OVCAR-4 ovarian.
Assay in all cases: NCI-60 cell line screen, 48 h

The record followed here is PubChem BioAssay (NCI).

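Five concentrations, 48 hours, 96-well plates. GI50 marks 50% less growth. Definition used: TGI = concentration required for complete inhibition of growth.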

Take `COC(=O)C1=C(O)C(C(=O)OC)[C@@]2(O)[C@@H](C(=O)OC)CC[C@@H]1[C@@H]2C(=O)OC` (stereo partly drawn): the TGI with HCT-116 colon is greater than 100 µM; with TK-10 renal, 93.4 µM; in the test on KM12 colon, 66 µM; in the test with SK-MEL-2 melanoma, 49.3 µM; in the test on SK-OV-3 ovarian, 34.6 µM; with SK-MEL-28 melanoma it was greater than 100 µM.

`COc1cc(Cc2ccc3c(c2C#N)N(C)c2ccccc2S3)cc(OC)c1OC`: the TGI with HCT-116 colon, in the test on TK-10 renal, in the test on KM12 colon, in the test with SK-MEL-2 melanoma, in the test on SK-OV-3 ovarian and with SK-MEL-28 melanoma was greater than 100 µM throughout. Also, the TGI in the test with SW-620 colon, in the test on SF-295 CNS, with IGROV1 ovarian and in the test on OVCAR-4 ovarian was greater than 100 µM throughout.

Regarding `C/C(=N\NC(=S)Nc1ccc(Cl)cc1)c1nc2ncccc2[nH]1`, the TGI is 13 µM in the test on HCT-116 colon; 5.12 µM in the test on TK-10 renal; 16.4 µM in the test on KM12 colon; 22.5 µM in the test on SK-MEL-2 melanoma; 60.8 µM in the test on SK-OV-3 ovarian; 13.3 µM with SK-MEL-28 melanoma. Further, the TGI in the test with SW-620 colon stood at 35.5 µM; with SF-295 CNS it was 13.5 µM; in the test with IGROV1 ovarian, 21.5 µM; in the test on OVCAR-4 ovarian, 41.4 µM.

On to `CN(CCO)/N=N/c1nc[nH]c1C(N)=O`, for which the TGI with HCT-116 colon, in the test on TK-10 renal, with KM12 colon, in the test on SK-MEL-2 melanoma, in the test on SK-OV-3 ovarian and in the test on SK-MEL-28 melanoma was greater than 100 µM throughout. For the same compound, the TGI with SW-620 colon, with SF-295 CNS, in the test with IGROV1 ovarian and with OVCAR-4 ovarian was greater than 100 µM throughout.

In the case of `CCOC(=O)Oc1ccc2c(c1)c(=O)c1c(NCCCN(CC)CC)ccc3nnn2c31`, the TGI with HCT-116 colon was found to be 15.8 µM; with TK-10 renal, 17.5 µM; with KM12 colon, 19.8 µM; in the test with SK-MEL-2 melanoma, 30 µM; in the test on SK-OV-3 ovarian, 23.4 µM; in the test with SK-MEL-28 melanoma, 33.2 µM. The TGI is 16.2 µM in the test with SW-620 colon, 21.3 µM with SF-295 CNS, 34.2 µM with IGROV1 ovarian and 20.2 µM in the test on OVCAR-4 ovarian.

Consider `Cc1nc(N(CCO)CCO)c2sc(=S)n(-c3ccccc3)c2n1`, for which the TGI in the test with HCT-116 colon, in the test on TK-10 renal, in the test with KM12 colon, with SK-MEL-2 melanoma, in the test on SK-OV-3 ovarian and with SK-MEL-28 melanoma was greater than 100 µM each time. The TGI in the test on SW-620 colon, in the test on SF-295 CNS and in the test with IGROV1 ovarian was greater than 100 µM each time.

With `NC(=S)N/N=C/c1ccc(OC(=O)COc2ccccc2Cl)cn1`, the TGI with HCT-116 colon is greater than 90 µM; in the test with KM12 colon, greater than 100 µM; with SK-MEL-2 melanoma it was greater than 100 µM; with SK-OV-3 ovarian, greater than 100 µM; in the test with SK-MEL-28 melanoma it was greater than 100 µM; with SW-620 colon, greater than 100 µM. The TGI with SF-295 CNS, in the test with IGROV1 ovarian and in the test with OVCAR-4 ovarian was greater than 100 µM throughout.

Consider `O=c1oc2c(ccc3c(O)cccc32)c2c1CCCC2`, for which the TGI in the test on HCT-116 colon, in the test with TK-10 renal, in the test on KM12 colon, in the test with SK-MEL-2 melanoma, with SK-MEL-28 melanoma and with SW-620 colon was greater than 100 µM in each case. Further, the values for the TGI in the test on SF-295 CNS, in the test on IGROV1 ovarian and with OVCAR-4 ovarian were 58 µM, greater than 100 µM and greater than 100 µM, respectively.

Consider `Cc1ccc(S(=O)(=O)Nc2cc(Sc3ccccc3)c(O)c3ccccc23)cc1`, for which the GI50 in the test on HCT-116 colon was 3.13 µM; in the test on TK-10 renal, 17.5 µM; in the test with KM12 colon, 6.01 µM; in the test on SK-MEL-2 melanoma, 3.73 µM; in the test with SK-OV-3 ovarian, 15.6 µM; in the test with SK-MEL-28 melanoma it was 4.4 µM. Also, the GI50 with SW-620 colon was 3.91 µM; in the test on SF-295 CNS, 12.9 µM; in the test with IGROV1 ovarian, 3.5 µM; in the test with OVCAR-4 ovarian it was 1.59 µM. In addition, the TGI in the test with HCT-116 colon was found to be 11.5 µM; in the test on TK-10 renal, 31.7 µM; in the test with KM12 colon, 18.9 µM; with SK-MEL-2 melanoma, 16 µM; in the test with SK-OV-3 ovarian, 29.8 µM; with SK-MEL-28 melanoma, 15 µM. Moreover, the TGI in the test with SW-620 colon came to 16.2 µM; with SF-295 CNS, 26.8 µM; in the test with IGROV1 ovarian, 10.4 µM; in the test on OVCAR-4 ovarian, 2.95 µM.

Take `C/C([O-])=C(/c1nc(-c2ccc([N+](=O)[O-])o2)no1)[n+]1cc(C)ccc1C`: the TGI in the test with HCT-116 colon is 18.5 µM; in the test with KM12 colon, 25.4 µM; in the test with SK-MEL-2 melanoma it was 19.7 µM; with SK-OV-3 ovarian it was greater than 79.3 µM; in the test with SK-MEL-28 melanoma, 25.6 µM; in the test on SW-620 colon, 16.9 µM. In addition, the TGI in the test on SF-295 CNS is 24.1 µM; in the test on IGROV1 ovarian, greater than 81.6 µM; in the test on OVCAR-4 ovarian it was 63.9 µM.

Regarding `BrC1=CN2C[n+]3cc(Br)c4ccccc4c3N=C2c2ccccc21`, the TGI in the test with TK-10 renal was 55 µM; in the test with KM12 colon it was 15.9 µM; with SK-MEL-2 melanoma, 22.3 µM; in the test on SK-OV-3 ovarian it was 51.8 µM; in the test on SK-MEL-28 melanoma, 6.7 µM; with SW-620 colon, greater than 100 µM. The TGI amounted to 21.5 µM in the test on SF-295 CNS, 32.1 µM in the test with IGROV1 ovarian and 20 µM with OVCAR-4 ovarian.

For `CCOC(=O)/C(=N/Nc1ccc(Cl)cc1)N1C(=S)C=C(C)NN(C)C1=S`, the TGI in the test with HCT-116 colon, in the test on TK-10 renal, in the test with KM12 colon, in the test on SK-MEL-2 melanoma, in the test on SK-OV-3 ovarian and in the test with SK-MEL-28 melanoma was greater than 100 µM each time. For the same compound, the TGI is greater than 100 µM in the test on SW-620 colon, 42.3 µM in the test with SF-295 CNS, greater than 100 µM in the test with IGROV1 ovarian and greater than 100 µM in the test with OVCAR-4 ovarian.

`CCOC(=O)C(=O)Nc1cccc(C)c1C`: the TGI in the test on HCT-116 colon, in the test on TK-10 renal, in the test on KM12 colon, in the test on SK-MEL-2 melanoma, in the test on SK-OV-3 ovarian and in the test on SK-MEL-28 melanoma was greater than 100 µM each time. Moreover, the TGI with SW-620 colon, in the test on SF-295 CNS, in the test on IGROV1 ovarian and with OVCAR-4 ovarian was greater than 100 µM throughout.

Take `COc1cc2nc(N3CCC[C@@H](NC4=CC(=O)c5ccccc5C4=O)C3)nc(N)c2cc1OC`: the GI50 in the test with TK-10 renal is 2.1 µM; with KM12 colon, 1.81 µM; in the test with SK-OV-3 ovarian it was 2.03 µM; with SK-MEL-28 melanoma, 1.72 µM; in the test on SW-620 colon, 1.59 µM; in the test on OVCAR-4 ovarian, 1.64 µM. In addition, the TGI in the test on TK-10 renal was 3.85 µM; with KM12 colon, 3.33 µM; in the test on SK-OV-3 ovarian, 4.08 µM; in the test on SK-MEL-28 melanoma, 3.39 µM; in the test on SW-620 colon, 3.36 µM; in the test on OVCAR-4 ovarian, 3.35 µM.
